Laboratory results reported in patent US12453708B2, “Aminonaphthoquinone compounds for treatment and/or prevention of fibrosis diseases” (CALGENT BIOTECHNOLOGY CO., LTD., priority 2015, dated 2025).

What was measured:
[1] = test system: BLM-induced lung fibrosis in mice; assay: Bleomycin (BLM)-induced lung fibrosis mice model; assay type: in vivo, C57BL/6JNarl mice; settings: for fibrosis score, Mean ± SEM: H&E histology day 39
Procedure: FIGS. 8 (A) and (B) show the effect of L056 effect on fibrosis score of BLM-induced lung fibrosis in mice. C57BL/6 mice (8 weeks) were treated with bleomycin (BLM, 0.05 U/50 μl) or PBS (50 μl) by endotracheal administration. […] On day 39, the mice were sacrificed and, the histologic analysis of lung tissue was performed by hematoxylin-eosin (H&E) staining (original magnification, x100). […] (A), Histology fibrosis score plot; (B), H&E staining plot.
FIG. 9 (A) to (D) show the inhibitory effects on pro-fibrogenic mediators, collagen, CTGF, fibronectin and […], respectively. (A), H&E staining plot for collagen; (B), H&E staining plot for CTGF; (C), H&E staining plot for fibronectin; (D), H&E staining plot for α-SMA.
C57BL/6JNarl mice (8 weeks) were treated with bleomycin (BLM, 0.05 U/50 μl) or PBS (50 μl) by endotracheal administration. […] On day 39, the mice were sacrificed, and the histologic analysis of lung tissue was performed by hematoxylin-eosin (H&E) staining (original magnification, x100).

[2] = test system: TGF-β-induced CTGF expression in WI-38 cells; assay: TGF-β-induced CTGF expression in WI-38 cells (Western blot); assay type: cell-based, human; settings: WI-38 lung fibroblasts, 0.3, 1, 3 or 10 μM for 30 min before and during 2 h TGF-β (10 ng/mL)
Procedure: FIGS. 1 (A) and (B) show the effect of L056 on TGF-β-induced CTGF expression in WI-38 cells. WI-38 lung fibroblasts were incubated with different concentrations of L056 (0.3, 1, 3 or 10 μM) for 30 min before and during incubation for 2 h with TGF-β (10 ng/mL). […] (A), Western blot plot; (B), Quantitative assay of Western blot. WI-38 cells, a normal human embryonic lung fibroblast cell line, were obtained from American Type Culture Collection (Manassas, VA). Cells were grown in MEM nutrient mixture, containing 10% FCS, 2 mM L-glutamine, 0.1 mM NEAA, 1 mM sodium pyruvate, 50 U/ml penicillin G, and 100 µg/ml streptomycin, in a humidified 37° C. incubator with 5% CO2 Cells were used between passages 18 and 30 for all experiments. After reaching confluence, cells were seeded onto 6-cm dishes for immunoblotting. Western blot analyses were performed as described previously (Chen B C, Chang Y S, Kang J C, Hsu M J, Sheu J R, Chen T L, et al. Peptidoglycan induces nuclear factor-kappaB activation and cyclooxygenase-2 expression via Ras, Raf-1, and ERK in RAW 264.7 macrophages. J Biol Chem 2004; 279:20889-97). […] The immunoreactivity was detected using enhanced chemiluminescence (ECL) following the manufacturer's instructions. Quantitative data were obtained using a computing densitometer with scientific imaging systems (Kodak, Rochester, NY). […]

[3] = BLM mice, 25 mg (mg/kg/day, q.d., oral, days 10 to 38)
[4] = BLM mice, 50 mg (mg/kg/day, q.d., oral, days 10 to 38)
[5] = BLM mice, 100 mg (mg/kg/day, q.d., oral, days 10 to 38)

Question: With `O=C(Nc1ccncc1)c1ccc(CNC2=C(Cl)C(=O)c3ccccc3C2=O)cc1` [Example L056, 4-(((3-chloro-1,4-dioxo-1,4-dihydronaphthalen-2-yl)amino)methyl)-N-(pyridin-4-yl)benzamide] as the molecule, how does the “Efficacy % (reduction of fibrosis score)” value [1, 3] read?
Answer: 50.94%

Question: And the “fibrosis score, Mean ± SEM” value [1, 3]?
Answer: 3.27 ± 0.03

Question: And the “Efficacy % (reduction of fibrosis score)” value [1, 4]?
Answer: 83.90%

Question: What about the “fibrosis score, Mean ± SEM” value [1, 4] of the same molecule?
Answer: 2.03 ± 0.21

Question: What about the “Efficacy % (reduction of fibrosis score)” value [1, 5] of the same molecule?
Answer: 67.38%

Question: And the “fibrosis score, Mean ± SEM” value [1, 5]?
Answer: 2.65 ± 0.17

Question: What about the “efficacy in the inhibition compared with PBS control” value ([1]; BLM mice, FIG. 8(B)) of the same molecule?
Answer: significantly higher than the PBS control

Question: What about the “pro-fibrogenic mediators expression (collagen, CTGF, fibronectin, α-SMA) in lung” value ([1]; bleomycin-induced mice lung fibrosis model, FIG. 9) of the same molecule?
Answer: inhibited

Question: And the “inhibition of BLM-induced lung fibrosis (in words)” value ([1]; mice, 25, 50, 100 mg/kg/day oral, FIG. 8(A))?
Answer: inhibits BLM-induced lung fibrosis in a dose-dependent manner

Question: And the “TGF-β-induced CTGF production” value [2]?
Answer: significantly inhibited
